The supplement of paper PMC9663587

Tests used:
Neratinib/HKI272 [1] = compound: T1, CCOc1cc2ncc(C#N)c(Nc3ccc(OCc4ccccn4)c(Cl)c3)c2cc1NC(=O)/C=C/CN(C)C [Neratinib/HKI272]; assay: GR value, 72 h; higher = faster growth (1 = untreated, <0 = killing);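 further: breast cancer and non-malignant breast epithelial lines, nine half-log doses, viable cells counted by Hoechst and LIVE/DEAD dye imaging versus time-zero plates and DMSO controls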
Flavopiridol [2] = compound: T2, CN1CC[C@H](c2c(O)cc(O)c3c(=O)cc(-c4ccccc4Cl)oc23)[C@H](O)C1 [Flavopiridol]; assay: as above
[3] = compound: CCc1cnn2c(NCc3ccc[n+]([O-])c3)cc(N3CCCC[C@H]3CCO)nc12; assay: increase in dead-cell fraction, 72 h; higher = more death;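 further: breast cancer cell lines in 384-well plates, stained with Hoechst plus LIVE/DEAD far red dye and imaged, cells above an LDR intensity threshold counted dead, Hoechst-negative corpses included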
[4] = compound: CCN1CCN(Cc2ccc(Nc3ncc(F)c(-c4cc(F)c5nc(C)n(C(C)C)c5c4)n3)nc2)CC1; assay: as above
THZ531 = compound: CN(C)C/C=C/C(=O)Nc1ccc(C(=O)N2CCC[C@@H](Nc3ncc(Cl)c(-c4c[nH]c5ccccc45)n3)C2)cc1 [THZ531]; assay: as above
YKL-5-124 = compound: C=CC(=O)Nc1ccc(C(=O)Nc2[nH]nc3c2CN(C(=O)N[C@H](CN(C)C)c2ccccc2)C3(C)C)cc1 [YKL-5-124]; assay: as above
Neratinib/HKI272 [5] = compound: T1, Neratinib/HKI272; assay: as above
LEE011/Ribociclib = compound: CN(C)C(=O)c1cc2cnc(Nc3ccc(N4CCNCC4)cn3)nc2n1C1CCCC1 [LEE011/Ribociclib]; assay: as above
Flavopiridol [6] = compound: T2, Flavopiridol; assay: as above
THZ1 = compound: CN(C)C/C=C/C(=O)Nc1ccc(C(=O)Nc2cccc(Nc3ncc(Cl)c(-c4c[nH]c5ccccc45)n3)c2)cc1 [THZ1]; assay: as above
[7] = compound: CC(=O)c1c(C)c2cnc(Nc3ccc(N4CCNCC4)cn3)nc2n(C2CCCC2)c1=O; assay: as above
BSJ-03-123 = compound: CC(=O)c1c(C)c2cnc(Nc3ccc(N4CCN(CCOCCOCCOCCNC(=O)COc5cccc6c5C(=O)N(C5CCC(=O)NC5=O)C6=O)CC4)cn3)nc2n(C2CCCC2)c1=O [BSJ-03-123]; assay: as above

Cell Line: UACC812
- GR value (Neratinib/HKI272 [1]; 0.0003162 µM): 1.02 GR
- GR value (Neratinib/HKI272 [1]; 0.001 µM): 0.785 GR
- GR value (Neratinib/HKI272 [1]; 0.003162 µM): 0.449 GR
- GR value (Neratinib/HKI272 [1]; 0.01 µM): 0.258 GR
- GR value (Neratinib/HKI272 [1]; 0.03162 µM): -0.145 GR
- GR value (Neratinib/HKI272 [1]; 0.1 µM): -0.384 GR
- GR value (Neratinib/HKI272 [1]; 0.3162 µM): -0.493 GR
- GR value (Neratinib/HKI272 [1]; 1 µM): -0.574 GR
- GR value (Neratinib/HKI272 [1]; 3.162 µM): -0.747 GR
- GR value (Flavopiridol [2]; 0.0001 µM): 0.797 GR
- GR value (Flavopiridol [2]; 0.0003162 µM): 1.15 GR
- GR value (Flavopiridol [2]; 0.001 µM): 0.734 GR
- GR value (Flavopiridol [2]; 0.003162 µM): 0.914 GR
- GR value (Flavopiridol [2]; 0.01 µM): 0.878 GR
- GR value (Flavopiridol [2]; 0.03162 µM): 0.785 GR
- GR value (Flavopiridol [2]; 0.1 µM): 0.457 GR
- GR value (Flavopiridol [2]; 0.3162 µM): -0.332 GR
- GR value (Flavopiridol [2]; 1 µM): -0.812 GR
- increase in dead-cell fraction ([3]; 0.0001 µM): -0.0048
- increase in dead-cell fraction ([3]; 0.0003162 µM): -0.0023
- increase in dead-cell fraction ([3]; 0.001 µM): -0.0065
- increase in dead-cell fraction ([3]; 0.003162 µM): -0.0073
- increase in dead-cell fraction ([3]; 0.01 µM): -0.007
- increase in dead-cell fraction ([3]; 0.03162 µM): 0.0324
- increase in dead-cell fraction ([3]; 0.1 µM): 0.478
- increase in dead-cell fraction ([3]; 0.3162 µM): 0.529
- increase in dead-cell fraction ([3]; 1 µM): 0.523
- increase in dead-cell fraction ([4]; 0.001 µM): -0.0019
- increase in dead-cell fraction ([4]; 0.003162 µM): 0.0028
- increase in dead-cell fraction ([4]; 0.01 µM): 0.0044
- increase in dead-cell fraction ([4]; 0.03162 µM): 0.0186
- increase in dead-cell fraction ([4]; 0.1 µM): 0.0202
- increase in dead-cell fraction ([4]; 0.3162 µM): 0.0231
- increase in dead-cell fraction ([4]; 1 µM): 0.0272
- increase in dead-cell fraction ([4]; 3.162 µM): 0.0144
- increase in dead-cell fraction ([4]; 10 µM): 0.073
- increase in dead-cell fraction (THZ531; 0.0001 µM): 0.0045
- increase in dead-cell fraction (THZ531; 0.0003162 µM): 0.0009
- increase in dead-cell fraction (THZ531; 0.001 µM): 0.0012
- increase in dead-cell fraction (THZ531; 0.003162 µM): -0.0009
- increase in dead-cell fraction (THZ531; 0.01 µM): 0.0008
- increase in dead-cell fraction (THZ531; 0.03162 µM): -0.0001
- increase in dead-cell fraction (THZ531; 0.1 µM): -0.0004
- increase in dead-cell fraction (THZ531; 0.3162 µM): 0.0004
- increase in dead-cell fraction (THZ531; 1 µM): 0.0127
- increase in dead-cell fraction (YKL-5-124; 0.001 µM): 0.0021
- increase in dead-cell fraction (YKL-5-124; 0.003162 µM): 0.0107
- increase in dead-cell fraction (YKL-5-124; 0.01 µM): 0.0182
- increase in dead-cell fraction (YKL-5-124; 0.03162 µM): 0.0223
- increase in dead-cell fraction (YKL-5-124; 0.1 µM): 0.0246
- increase in dead-cell fraction (YKL-5-124; 0.3162 µM): 0.0283
- increase in dead-cell fraction (YKL-5-124; 1 µM): 0.0151
- increase in dead-cell fraction (YKL-5-124; 3.162 µM): 0.027
- increase in dead-cell fraction (YKL-5-124; 10 µM): 0.0485
- increase in dead-cell fraction (Neratinib/HKI272 [5]; 0.0003162 µM): -0.0016
- increase in dead-cell fraction (Neratinib/HKI272 [5]; 0.001 µM): 0.0009
- increase in dead-cell fraction (Neratinib/HKI272 [5]; 0.003162 µM): 0.0017
- increase in dead-cell fraction (Neratinib/HKI272 [5]; 0.01 µM): 0.0044
- increase in dead-cell fraction (Neratinib/HKI272 [5]; 0.03162 µM): 0.0198
- increase in dead-cell fraction (Neratinib/HKI272 [5]; 0.1 µM): 0.0311
- increase in dead-cell fraction (Neratinib/HKI272 [5]; 0.3162 µM): 0.0666
- increase in dead-cell fraction (Neratinib/HKI272 [5]; 1 µM): 0.0547
- increase in dead-cell fraction (Neratinib/HKI272 [5]; 3.162 µM): 0.114
- increase in dead-cell fraction (LEE011/Ribociclib; 0.001 µM): 0.0064
- increase in dead-cell fraction (LEE011/Ribociclib; 0.003162 µM): 0.0022
- increase in dead-cell fraction (LEE011/Ribociclib; 0.01 µM): 0.0036
- increase in dead-cell fraction (LEE011/Ribociclib; 0.03162 µM): 0.0049
- increase in dead-cell fraction (LEE011/Ribociclib; 0.1 µM): 0.0102
- increase in dead-cell fraction (LEE011/Ribociclib; 0.3162 µM): 0.0156
- increase in dead-cell fraction (LEE011/Ribociclib; 1 µM): 0.0075
- increase in dead-cell fraction (LEE011/Ribociclib; 3.162 µM): 0.017
- increase in dead-cell fraction (LEE011/Ribociclib; 10 µM): 0.0125
- increase in dead-cell fraction (Flavopiridol [6]; 0.0001 µM): 0.0015
- increase in dead-cell fraction (Flavopiridol [6]; 0.0003162 µM): -0.0016
- increase in dead-cell fraction (Flavopiridol [6]; 0.001 µM): 0.0074
- increase in dead-cell fraction (Flavopiridol [6]; 0.003162 µM): 0.0022
- increase in dead-cell fraction (Flavopiridol [6]; 0.01 µM): -0.0031
- increase in dead-cell fraction (Flavopiridol [6]; 0.03162 µM): -0.0033
- increase in dead-cell fraction (Flavopiridol [6]; 0.1 µM): 0.0023
- increase in dead-cell fraction (Flavopiridol [6]; 0.3162 µM): 0.0692
- increase in dead-cell fraction (Flavopiridol [6]; 1 µM): 0.403
- increase in dead-cell fraction (THZ1; 0.0001 µM): -0.003
- increase in dead-cell fraction (THZ1; 0.0003162 µM): 0.0027
- increase in dead-cell fraction (THZ1; 0.001 µM): -0.0004
- increase in dead-cell fraction (THZ1; 0.003162 µM): 0.0019
- increase in dead-cell fraction (THZ1; 0.01 µM): 0.0019
- increase in dead-cell fraction (THZ1; 0.03162 µM): -0.0013
- increase in dead-cell fraction (THZ1; 0.1 µM): -0.0018
- increase in dead-cell fraction (THZ1; 0.3162 µM): 0.0001
- increase in dead-cell fraction (THZ1; 1 µM): 0.0639
- increase in dead-cell fraction ([7]; 0.0003162 µM): -0.0049
- increase in dead-cell fraction ([7]; 0.001 µM): 0.0002
- increase in dead-cell fraction ([7]; 0.003162 µM): -0.0042
- increase in dead-cell fraction ([7]; 0.01 µM): 0.005
- increase in dead-cell fraction ([7]; 0.03162 µM): 0.0019
- increase in dead-cell fraction ([7]; 0.1 µM): 0.0099
- increase in dead-cell fraction ([7]; 0.3162 µM): 0.0073
- increase in dead-cell fraction ([7]; 1 µM): 0.0136
- increase in dead-cell fraction ([7]; 3.162 µM): 0.0146
- increase in dead-cell fraction (BSJ-03-123; 0.001 µM): 0.0002
- increase in dead-cell fraction (BSJ-03-123; 0.003162 µM): 0.0007
- increase in dead-cell fraction (BSJ-03-123; 0.01 µM): 0.0021
- increase in dead-cell fraction (BSJ-03-123; 0.03162 µM): 0.0004
- increase in dead-cell fraction (BSJ-03-123; 0.1 µM): 0.0012
- increase in dead-cell fraction (BSJ-03-123; 0.3162 µM): -0.0006
- increase in dead-cell fraction (BSJ-03-123; 1 µM): -0.0002
- increase in dead-cell fraction (BSJ-03-123; 3.162 µM): 0.0096
- increase in dead-cell fraction (BSJ-03-123; 10 µM): 0.0406
